This is an account of results in PubChem BioAssay (NCI).

The structures appear in SMILES notation. Several values for one entry are separate records, joined by “and”; a condition that tells them apart may be missing. Equal entries are not always repeated.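 Step 1: Grow cells in 96-well plates. Step 2: Expose to compound for 48 hours at 5 concentrations. Step 3: Interpolate endpoints linearly; if unreached, use highest concentration. Abbreviation: GI50, concentration required for 50% inhibition of growth. At the TGI there is no net growth.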 Some results are limits rather than exact numbers.

Among the test systems are RXF 393 renal; NCI/ADR-RES ovarian; SF-539 CNS; SK-MEL-28 melanoma; SNB-19 CNS; HT29 colon; OVCAR-8 ovarian; SN12C renal; SK-OV-3 ovarian; EKVX NSCLC.
Holding throughout (test): inhibition of tumour cell growth, NCI panel, 48 h

Consider `CN(C)CCNc1nc2ccccc2c2c1C(=O)c1ccccc1-2`, for which the TGI turned out to be 1.13 µM with RXF 393 renal; 2.06 µM in the assay on NCI/ADR-RES ovarian; 3.04 µM in the assay on SF-539 CNS; 2.84 µM with SK-MEL-28 melanoma; 5.42 µM in the assay with SNB-19 CNS; 3.5 µM in the assay on HT29 colon. Also, the TGI in the assay with OVCAR-8 ovarian was determined as 2.26 µM; with SN12C renal, 0.45 µM; with SK-OV-3 ovarian, 13.1 µM; in the assay on EKVX NSCLC, 3.09 µM.
`O=C1O/C(=C\c2ccc(O)cc2)C(c2ccc(O)c(Cl)c2)=C1Br`: the TGI in the assay on RXF 393 renal was determined as 59.8 µM; with NCI/ADR-RES ovarian, 65.4 µM; in the assay on SF-539 CNS, 29.1 µM; in the assay on SK-MEL-28 melanoma, 26.2 µM; in the assay on SNB-19 CNS, 62.7 µM; with HT29 colon, 29.9 µM. Also, the TGI was 73.8 µM in the assay on OVCAR-8 ovarian, 46.4 µM in the assay with SN12C renal, 37.2 µM in the assay with SK-OV-3 ovarian and 40.7 µM in the assay with EKVX NSCLC.
Regarding `CC(=O)c1nccc2c1c(C)nc1ccccc12`, the TGI in the assay on RXF 393 renal, with NCI/ADR-RES ovarian, with SF-539 CNS, with SK-MEL-28 melanoma, in the assay on SNB-19 CNS and with HT29 colon was greater than 100 µM each time. The TGI with OVCAR-8 ovarian, with SN12C renal, with SK-OV-3 ovarian and in the assay on EKVX NSCLC was greater than 100 µM throughout.
With `CSc1nc2c(ncn2C2OCC(O)C(O)C2O)c(=O)[nH]1` (stereo not drawn), the TGI with RXF 393 renal, in the assay with NCI/ADR-RES ovarian, in the assay on SF-539 CNS, in the assay with SK-MEL-28 melanoma, with SNB-19 CNS and in the assay on HT29 colon was greater than 100 µM each time. For the same compound, the TGI in the assay on OVCAR-8 ovarian, in the assay on SN12C renal, with SK-OV-3 ovarian and in the assay on EKVX NSCLC was greater than 100 µM each time.
`COC1(OC)N=C(N)C2(C#N)/C(=N/N(C)C)CC(C)C12C#N` (stereo not drawn): the TGI in the assay on RXF 393 renal, in the assay on NCI/ADR-RES ovarian, in the assay on SF-539 CNS, in the assay on SK-MEL-28 melanoma, in the assay on SNB-19 CNS and in the assay with HT29 colon was greater than 100 µM in each case. The TGI in the assay with OVCAR-8 ovarian, in the assay on SN12C renal, with SK-OV-3 ovarian and in the assay with EKVX NSCLC was greater than 100 µM in each case.
On to `BrCC[P+](c1ccccc1)(c1ccccc1)c1ccccc1`, for which the TGI with RXF 393 renal stood at 8.02 µM; with NCI/ADR-RES ovarian it was 27.5 µM; in the assay with SF-539 CNS, 35.3 µM; with SK-MEL-28 melanoma it was 19.5 µM; in the assay on SNB-19 CNS, 62.1 µM; with HT29 colon it was 30.2 µM. For the same compound, the TGI with OVCAR-8 ovarian was 21.9 µM; in the assay on SN12C renal, 8.39 µM; in the assay on SK-OV-3 ovarian, 66.4 µM; with EKVX NSCLC it was 12.8 µM.
As for `COC1=CC2(C=CC1=O)CCN=c1c(O)c3c(c(O)c12)=NC=N3` (stereo not drawn), the TGI in the assay on RXF 393 renal, with NCI/ADR-RES ovarian, with SF-539 CNS, in the assay with SK-MEL-28 melanoma, with SNB-19 CNS and in the assay on HT29 colon was greater than 100 µM each time. In addition, the TGI in the assay with OVCAR-8 ovarian, with SN12C renal, with SK-OV-3 ovarian and in the assay with EKVX NSCLC was greater than 100 µM in each case.
Take `CSC1(SC)CCCCCCCCCCC1`: the TGI with RXF 393 renal, with NCI/ADR-RES ovarian, in the assay with SF-539 CNS, in the assay with SK-MEL-28 melanoma, with SNB-19 CNS and in the assay with HT29 colon was greater than 100 µM throughout. Further, the TGI in the assay with OVCAR-8 ovarian, with SN12C renal, in the assay on SK-OV-3 ovarian and in the assay on EKVX NSCLC was greater than 100 µM each time.
For the compound `CC(=O)c1c(O)c(C)c(O)c2c1OC1=CC(=O)C(C(C)=O)C(=O)C12C` (stereo not drawn), the GI50 in the assay with RXF 393 renal is 5.72 µM and 19.2 µM; with NCI/ADR-RES ovarian it was 4.05 µM and 16.7 µM; in the assay on SF-539 CNS it was 5.09 µM and 16.3 µM; in the assay on SNB-19 CNS it was 4.26 µM and 12.4 µM; with HT29 colon, 6.28 µM and 25.7 µM; with OVCAR-8 ovarian, 4.84 µM and 14.1 µM. In addition, the GI50 with SK-OV-3 ovarian was 9.68 µM and 26.5 µM; in the assay on EKVX NSCLC it was 4.39 µM and 20.3 µM. The TGI was 22.8 µM and 43.8 µM with RXF 393 renal; 13.5 µM and 55.7 µM with NCI/ADR-RES ovarian; 18.4 µM and 23.5 µM in the assay with SF-539 CNS; 40.9 µM and 22 µM with SK-MEL-28 melanoma; 18.2 µM and 44.5 µM with SNB-19 CNS; 29.3 µM and 70.2 µM with HT29 colon. Further, the TGI with OVCAR-8 ovarian is 22.3 µM and 52.2 µM; with SN12C renal it was 8.95 µM and 50.1 µM; with SK-OV-3 ovarian, 56.1 µM and 80.6 µM; with EKVX NSCLC, 17 µM and 48.2 µM.
For `O=C(O)CNC(=O)c1cccc2c(=O)c3ccccc3[nH]c12`, the TGI with RXF 393 renal, in the assay with NCI/ADR-RES ovarian, in the assay with SF-539 CNS, in the assay on SK-MEL-28 melanoma, in the assay with SNB-19 CNS and in the assay on HT29 colon was greater than 100 µM throughout. Moreover, the TGI in the assay on OVCAR-8 ovarian, in the assay with SN12C renal, in the assay with SK-OV-3 ovarian and in the assay on EKVX NSCLC was greater than 100 µM each time.
For `O=C(O)c1ccccc1-c1ccccc1C(=O)c1ccccc1`, the TGI in the assay on RXF 393 renal, with NCI/ADR-RES ovarian, with SF-539 CNS, in the assay on SK-MEL-28 melanoma, in the assay on SNB-19 CNS and in the assay on HT29 colon was greater than 100 µM each time. Moreover, the TGI with OVCAR-8 ovarian, in the assay on SN12C renal, in the assay with SK-OV-3 ovarian and in the assay with EKVX NSCLC was greater than 100 µM each time.
